According to US10821160B2, “L-asparaginase variants and fusion proteins with reduced L-glutaminase activity and enhanced stability” (priority 2016, dated 2020):
Where “and” joins values, the source holds several entries; their conditions need not be identical. Identical values can stand only once.

How the values were obtained:
[1] = target: T1, Erwinia chrysanthemi L-asparaginase, wild type (ErA-WT), SEQ ID NO:1 (Dickeya chrysanthemi, UniProt P06608); assay: L-asparaginase activity, continuous spectroscopic enzyme-coupled assay; format: biochemical; settings: 37° C
T1 construct: lacking the first 21-amino acid residue signal peptide; His6-SUMO (yeast Smt3p) (N, cleaved yes); made in house; host or cells: E. coli BL21(DE3) C41
Protocol: (§1) In brief, the assay measures the production of L-aspartate through the 1:1 oxidation of reduced NADH. The conversion of NADH to NAD^+ was measured spectrophotometrically as a decrease in absorbance at 340 nm at 37° C. All measurements were taken in triplicate. Rates were fit to the Michaelis-Menten equation using SIGMAPLOT software (Systat Software Inc).
(§2) The parameters that define the asparagine-depleting power of such enzyme drugs are of significance. […] Enzymologists often combine these two parameters into a single value (kcat/Km) that is thought to represent the efficiency of the enzyme.
(§3) Using colorimetric enzyme-coupled assays, L-asparaginase and L-glutaminase activity of the enzymes was determined.

[2] = target: Erwinia chrysanthemi L-asparaginase (ErA) variant E63Q (ErA-E63Q), SEQ ID NO:2 (Dickeya chrysanthemi, UniProt P06608, E84Q); settings: 37° C
Protocol: as §1, with “L-asparaginase activity was determined using a continuous spectroscopic enzyme-coupled assay as previously described (Schalk, et al. (2014) J. Biol. Chem. 289:33175-33186). In brief,” for “In brief,”
as §2, §3

[3] = target: T2, Erwinia chrysanthemi L-asparaginase (ErA) variant E63Q-S254N (ErA-DM1), SEQ ID NO:3 (Dickeya chrysanthemi, UniProt P06608, E84Q/S275N); format: biochemical
T2 construct: lacking the first 21-amino acid residue signal peptide; His6-SUMO (yeast Smt3p) (N, cleaved yes); made in house; host or cells: E. coli BL21(DE3) C41
Protocol: (§6) L-asparaginase activity was determined using a continuous spectroscopic enzyme-coupled assay as previously described (Schalk, et al. (2014) J. Biol. Chem. 289:33175-33186). In brief, the assay measures the production of L-aspartate through the 1:1 oxidation of reduced NADH. The conversion of NADH to NAD^+ was measured spectrophotometrically as a decrease in absorbance at 340 nm at 37° C. All measurements were taken in triplicate. Rates were fit to the Michaelis-Menten equation using SIGMAPLOT software (Systat Software Inc).

[4] = target: T3, Erwinia chrysanthemi L-asparaginase (ErA) variant E63Q-S254Q (ErA-DM3), SEQ ID NO:5 (Dickeya chrysanthemi, UniProt P06608, E84Q/S275Q); format: biochemical; settings: 37° C
T3 construct: lacking the first 21-amino acid residue signal peptide; His6-SUMO (yeast Smt3p) (N, cleaved yes); made in house; host or cells: E. coli BL21(DE3) C41
Protocol: as §1, with “L-asparaginase activity was determined using a continuous spectroscopic enzyme-coupled assay as previously described (Schalk, et al. (2014) J. Biol. Chem. 289:33175-33186). In brief,” for “In brief,”
as §2, §3

[5] = target: T4, Erwinia chrysanthemi L-asparaginase (ErA) variant A31I-E63Q-S254N (ErA-TM1), SEQ ID NO:7 (Dickeya chrysanthemi, UniProt P06608, A52I/E84Q/S275N); format: biochemical; settings: 37° C
T4 construct: lacking the first 21-amino acid residue signal peptide; His6-SUMO (yeast Smt3p) (N, cleaved yes); made in house; host or cells: E. coli BL21(DE3) C41
Protocol: as §6

[6] = target: T5, Erwinia chrysanthemi L-asparaginase (ErA) variant A31I-E63Q (ErA-DM2), SEQ ID NO:4 (Dickeya chrysanthemi, UniProt P06608, A52I/E84Q); format: biochemical; settings: 37° C
T5 construct: lacking the first 21-amino acid residue signal peptide; His6-SUMO (yeast Smt3p) (N, cleaved yes); made in house; host or cells: E. coli BL21(DE3) C41
Protocol: as §1, with “L-asparaginase activity was determined using a continuous spectroscopic enzyme-coupled assay as previously described (Schalk, et al. (2014) J. Biol. Chem. 289:33175-33186). In brief,” for “In brief,”
(§4) Using colorimetric enzyme-coupled assays, L-asparaginase and L-glutaminase activity of the enzymes was determined. […] Seventeen of the 18 mutants had reduced L-glutaminase activity (Table 7). However, for most of the mutants, this decrease was concomitant with a decline in the L-asparaginase activity. Using the criteria of (i) ≥60% retained L-asparaginase activity (relative to Erw-WT) and (ii) ≤5% L-glutaminase versus and L-asparaginase activity, mutants ErA-E63Q, ErA-S254P, ErA-A31I+E63Q and ErA-S254N+E63Q were selected for further study.

[7] = target: T6, Erwinia chrysanthemi L-asparaginase (ErA) variant S254P (ErA-S254P) (Dickeya chrysanthemi, UniProt P06608, S275P); format: biochemical; settings: 37° C
T6 construct: lacking the first 21-amino acid residue signal peptide; His6-SUMO (yeast Smt3p) (N, cleaved yes); made in house; host or cells: E. coli BL21(DE3) C41
Protocol: as §1, with “L-asparaginase activity was determined using a continuous spectroscopic enzyme-coupled assay as previously described (Schalk, et al. (2014) J. Biol. Chem. 289:33175-33186). In brief,” for “In brief,”
as §4

[8] = target: T7, Escherichia coli L-asparaginase, wild type (EcA-WT), SEQ ID NO:9 (Escherichia coli, UniProt P00805); assay: L-asparaginase activity, continuous spectroscopic enzyme-coupled assay; format: biochemical; settings: 37° C
T7 sequence (P00805 with tags, fused parts or gaps): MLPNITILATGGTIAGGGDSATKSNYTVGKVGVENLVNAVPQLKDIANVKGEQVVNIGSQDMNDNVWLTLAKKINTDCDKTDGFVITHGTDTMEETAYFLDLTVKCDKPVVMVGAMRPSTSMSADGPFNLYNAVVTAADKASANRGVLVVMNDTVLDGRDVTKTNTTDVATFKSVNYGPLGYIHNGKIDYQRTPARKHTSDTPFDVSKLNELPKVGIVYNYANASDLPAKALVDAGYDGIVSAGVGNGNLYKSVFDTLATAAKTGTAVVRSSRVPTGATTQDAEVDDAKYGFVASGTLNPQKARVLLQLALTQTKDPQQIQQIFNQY
Protocol: as §1, with “L-asparaginase activity was determined using a continuous spectroscopic enzyme-coupled assay as previously described (Schalk, et al. (2014) J. Biol. Chem. 289:33175-33186). In brief,” for “In brief,”
as §2, with “enzyme. […] Therefore, the ErA enzyme was selected for developing a variant with low L-glutaminase activity.” for “enzyme.”

[9] = target: T8, 10K PEGylated Erwinia chrysanthemi L-asparaginase (ErA) variant A31I-E63Q-S254Q-D84C (10K PEGylated-ErA-TM2-D84C) (Dickeya chrysanthemi, UniProt P06608, A52I/D105C/E84Q/S275Q); assay: L-asparaginase activity, comparison with ErA-TM2; format: biochemical
T8 construct: lacking the first 21-amino acid residue signal peptide; made in house
Protocol: as §1, with “L-asparaginase activity was determined using a continuous spectroscopic enzyme-coupled assay as previously described (Schalk, et al. (2014) J. Biol. Chem. 289:33175-33186). In brief,” for “In brief,”
(§5) The resulting […] protein was expressed, purified and PEGylated with mPEG-10K.

[10] = target: T9, Erwinia chrysanthemi L-asparaginase (ErA) variant A31I-E63Q-S254Q-D84C (ErA-TM2-D84C) (Dickeya chrysanthemi, UniProt P06608, A52I/D105C/E84Q/S275Q); assay: L-asparaginase activity, comparison with ErA-TM2; format: biochemical
T9 construct: lacking the first 21-amino acid residue signal peptide; made in house
Protocol: as §1, with “L-asparaginase activity was determined using a continuous spectroscopic enzyme-coupled assay as previously described (Schalk, et al. (2014) J. Biol. Chem. 289:33175-33186). In brief,” for “In brief,”
as §5

[11] = tested on: Erwinia chrysanthemi L-asparaginase (ErA) variants ErA-E63Q, ErA-DM2 (A31I-E63Q) and ErA-DM1 (E63Q-S254N); assay: L-asparaginase activity of the mutants as a group vs ErA-WT; format: biochemical; settings: Asn
Protocol: as §1, with “L-asparaginase activity was determined using a continuous spectroscopic enzyme-coupled assay as previously described (Schalk, et al. (2014) J. Biol. Chem. 289:33175-33186). In brief,” for “In brief,”
as §4

[12] = target: Erwinia chrysanthemi L-asparaginase (ErA) variant A31I-E63Q-S254Q (ErA-TM2), SEQ ID NO:6 (Dickeya chrysanthemi, UniProt P06608, A52I/E84Q/S275Q); format: biochemical; design: lacking the first 21-amino acid residue signal peptide; His6-SUMO (yeast Smt3p) (N, cleaved yes); made in house; host or cells: E. coli BL21(DE3) C41
Protocol: as §1, with “L-asparaginase activity was determined using a continuous spectroscopic enzyme-coupled assay as previously described (Schalk, et al. (2014) J. Biol. Chem. 289:33175-33186). In brief,” for “In brief,”
as §3

## NC(=O)C[C@H](N)C(=O)O [Asn, L-asparagine]
[1]; 20 μM Asn
  kobs @20 μM: 50.7 s⁻¹
[1]; 50 μM Asn
  kobs @50 μM: 105.3 s⁻¹
[2]; 20 μM Asn
  kobs @20 μM: 46.3 s⁻¹
[2]; 50 μM Asn
  kobs @50 μM: 92.2 s⁻¹
[2]; Asn
  Km: 48.1 µM and 50.7 µM
[3]; 20 μM Asn, 37° C
  kobs @20 μM: 18.9 s⁻¹
[3]; 50 μM Asn, 37° C
  kobs @50 μM: 36.3 s⁻¹
[3]; Asn, 37° C
  kcat: 169.8 ± 1.5 s⁻¹
[3]; Asn, relative to ErA-WT
  increase in Asn Km: 4 fold
[4]; 20 μM Asn
  kobs @20 μM: 14.2 s⁻¹
[4]; 50 μM Asn
  kobs @50 μM: 36.3 s⁻¹ and 30.8 s⁻¹
[4]; Asn
  Km: 179 ± 5.6 µM
  kcat: 147.3 ± 1.0 s⁻¹
[5]; 20 μM Asn
  kobs @20 μM: 16.4 s⁻¹
[5]; 50 μM Asn
  kobs @50 μM: 29.2 s⁻¹
[5]; Asn
  kcat: 109.7 ± 0.8 s⁻¹
[6]; 20 μM Asn
  kobs @20 μM: 38.8 s⁻¹
[6]; 50 μM Asn
  kobs @50 μM: 69.7 s⁻¹
[6]; Asn
  Km: 36.9 ± 2.2 µM
  kcat: 123.0 ± 1.8 s⁻¹
[7]; 20 μM Asn
  kobs @20 μM: 4.5 s⁻¹
[7]; 50 μM Asn
  kobs @50 μM: 10.5 s⁻¹
[7]; Asn
  Km: 1150 ± 25.5 µM
  kcat: 250.0 ± 2.8 s⁻¹
[8]; 20 μM Asn
  kobs @20 μM: 28.3 s⁻¹
[8]; 50 μM Asn
  kobs @50 μM: 41.3 s⁻¹
[9]
  kobs at 2 mM Asn: 163.4 s⁻¹
[10]
  kobs at 2 mM Asn: 172.8 s⁻¹
[11]
  near wild-type kcat (range, of ErA-WT): 60-90%
[12]; 20 μM Asn, 37° C
  kobs @20 μM: 40.8 s⁻¹
[12]; 50 μM Asn, 37° C
  kobs @50 μM: 89.1 s⁻¹
[12]; 2 mM Asn
  kobs at 2 mM Asn: 178.8 s⁻¹
[12]; Asn, 37° C
  Km: 95 ± 3.5 µM
  kcat: 261.2 ± 2.8 s⁻¹
